Where a name gives a salt, the structure may show the parent alone.
These compounds were tested on HBV rcDNA in HepDE19 cells (assay: HepDE19 assay with bDNA quantitation of HBV rcDNA). Details: Hepatitis B virus, HepDE19, 168 h, HepDE19 cells, 7 day incubation, rcDNA by Quantigene 2.0 bDNA assay; read-out: DE-19 bDNA EC50.
Format: cell-based, hepatitis B virus (HBV)
Outline: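 HepG2-derived HepDE19 cells, switched to Tet-free medium, were exposed 7 days at 37 °C to compound (8-point ½-log series from 25 μM, 0.5% DMSO). HBV rcDNA measured by bDNA assay with HBV-specific probes; EC50/EC90 by 4-parameter fit. CC50 from CellTiter-Glo ATP on replicate plates after 4 days.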

Compound | EC50 [nM]
O=C(Nc1ccc(F)c(F)c1)c1cccc2c1OCCC2c1cnccn1 (stereo not shown) [Compound 97, N-(3,4-difluorophenyl)-4-(pyrazin-2-yl)chromane-8-carboxamide] | 16000
Cn1nccc1COC(=O)N[C@H]1CCOc2c(C(=O)Nc3ccc(F)c(F)c3)cccc21 [Compound 100, (1-Methyl-1H-pyrazol-5-yl)methyl (S)-(8-((3,4-difluorophenyl)carbamoyl)chroman-4-yl)carbamate] | 2600
Cn1nccc1CN[C@H]1CCOc2c(C(=O)Nc3ccc(F)c(F)c3)cccc21 [Compound 101] | 21000
O=C(N[C@H]1CCOc2c(C(=O)Nc3ccc(F)c(F)c3)cccc21)OCc1ccon1 [Compound 103, Isoxazol-3-ylmethyl (S)-(8-((3,4-difluorophenyl)carbamoyl)chroman-4-yl)carbamate] | 2100
O=C(N[C@H]1CCOc2c(C(=O)Nc3ccc(F)c(Cl)c3)ccc(F)c21)OCc1ccccn1 [Compound 105, Pyridin-2-ylmethyl (S)-(8-((3-chloro-4-fluorophenyl)carbamoyl)-5-fluorochroman-4-yl)carbamate] | 370
O=C(N[C@@H]1CCOc2c(C(=O)Nc3ccc(F)c(Cl)c3)ccc(F)c21)OCc1ccccn1 [Compound 106, pyridin-2-ylmethyl (R)-(8-((3-chloro-4-fluorophenyl)carbamoyl)-5-fluorochroman-4-yl)carbamate] | 20000
O=C(N[C@H]1CCOc2c(C(=O)Nc3ccc(F)c(F)c3)cccc21)OCC1CCNCC1 [Compound 107, piperidin-4-ylmethyl (S)-(8-((3,4-difluorophenyl)carbamoyl)chroman-4-yl)carbamate] | 21000
O=C1CCOc2c1c(F)cc(F)c2C(=O)Nc1ccc(F)c(F)c1 [Compound 110, N-(3,4-difluorophenyl)-5,7-difluoro-4-oxochromane-8-carboxamide] | 1600
O=C(N[C@H]1CCOc2c(C(=O)Nc3ccc(F)c(Cl)c3)cccc21)OCc1cnccn1 [Compound 112, Pyrazin-2-ylmethyl (S)-(8-((3-chloro-4-fluorophenyl)carbamoyl)chroman-4-yl)carbamate] | 770
Cc1cc(NC(=O)c2ccc(F)c3c2OCC[C@@H]3NC(=O)OCc2ccccn2)ccc1F [Compound 113, Pyridin-2-ylmethyl (S)-(5-fluoro-8-((4-fluoro-3-methylphenyl)carbamoyl)chroman-4-yl)carbamate] | 560
Cc1cc(NC(=O)c2ccc(F)c3c2OCC[C@@H]3NC(=O)OCc2cnccn2)ccc1F [Compound 114, Pyrazin-2-ylmethyl (S)-(5-fluoro-8-((4-fluoro-3-methylphenyl)carbamoyl)chroman-4-yl)carbamate] | 500

Same assay, conditions: Hepatitis B virus, HepDE19, 168 h, read-out: DE-19 bDNA EC50, HepDE19 cells, 7 day incubation, rcDNA by Quantigene 2.0 bDNA assay

Compound | EC50 [nM]
COc1ccc(COC(=O)N[C@H]2CCOc3c(C(=O)Nc4ccc(F)c(F)c4)cccc32)nc1 [Compound 102, (5-Methoxypyridin-2-yl)methyl (S)-(8-((3,4-difluorophenyl)carbamoyl)chroman-4-yl)carbamate hydrochloride] | 2500
CNC(=O)N[C@H]1CCOc2c(C(=O)Nc3ccc(F)c(Cl)c3)ccc(F)c21 [Compound 104, (S)—N-(3-Chloro-4-fluorophenyl)-5-fluoro-4-(3-methylureido)chromane-8-carboxamide] | 400
COc1cccc(COC(=O)N[C@H]2CCOc3c(C(=O)Nc4ccc(F)c(F)c4)cccc32)n1 [Compound 111, (6-Methoxypyridin-2-yl)methyl (S)-(8-((3,4-difluorophenyl)carbamoyl)chroman-4-yl)carbamate hydrochloride] | 2700
COC(=O)N[C@H]1CCOc2c(C(=O)Nc3ccc(F)c(F)c3)c(F)cc(F)c21 [Compound 115, Methyl (S)-(8-((3,4-difluorophenyl)carbamoyl)-5,7-difluorochroman-4-yl)carbamate] | 800
CNC(=O)N[C@H]1CCOc2c(C(=O)Nc3ccc(F)c(F)c3)c(F)cc(F)c21 [Compound 116, (S)—N-(3,4-Difluorophenyl)-5,7-difluoro-4-(3-methylureido)chromane-8-carboxamide] | 1800

— patent US11001564B2, “Substituted chromane-8-carboxamide compounds and analogues thereof, and methods using same” (priority 2016, dated 2021)
